Experiments:
[1] = tested on: primordial follicles (PMF); assay: In vivo mouse model of Cy-induced follicle depletion, follicle counting (H&E)
Experimental: Ovaries removed 12 h, 24h, 3 days or 21 days following Cy treatment were fixed in PFA, paraffin-embedded and serially sectioned (5-μm).
Follicle counting: H&E staining was used for differential follicle counts in ovaries removed 3 and 21 days following Cy treatment and conducted as previously described. […] Atretic follicles were not calculated. Only follicles with non-atretic and healthy granulosa cells were counted for total number

[2] = tested on: primary follicles; assay: Proliferation assay, Ki-67 staining of primary follicles; assay type: in vivo, mouse
Experimental: Mild proliferation: 1-2 granulosa cells per follicle stained for Ki-67. Extensive proliferation: 3 or more granulosa cells per follicle stained for Ki-67. An average number of primary follicles stained in each category in 2-3 sections per ovary was calculated.

[3] = tested on: rpS6; assay: Western blotting of whole ovaries, prpS6/rpS6; assay type: in vivo, mouse; details: whole ovaries 24 hours after Cy 150 mg/kg, alone or co-treated
[4] = tested on: mTOR; assay: Western blotting of whole ovaries, pmTOR/mTOR; assay type: in vivo, mouse; details: whole ovaries 24 hours after Cy 150 mg/kg, alone or co-treated
[5] = tested on: PMF oocytes; assay: DNA damage assay, γH2AX staining; assay type: in vivo, mouse; details: ovaries removed 12 h after Cy, alone or co-treated; FIG. 7A
Experimental: BALB/c female mice aged 12 days or 8 weeks (Envigo, Israel) were given a single intraperitoneal injection of 200 μl of PBS or an equal volume of 150 mg/kg Cy (Sigma-Aldrich), 5 mg/kg temsirolimus (Selleck Chemicals; 5 doses in 7 days before Cy treatment, Bozec et al., 2011; Wan et al., 2006) or 5 μg/mouse human C-terminus recombinant AMH (rAMH R&D Systems), 5 doses in 24 hours—every 6 hours following the administration of Cy (Roness et al., 2019). Ovaries were collected either 12 or 24 hours after Cy treatment for protein analysis and histochemical staining, and 3 or 21 days after Cy treatment for H&E staining and follicle counts. Ovaries were removed and placed immediately into either RNA later solution or 4% paraformaldehyde. All procedures were approved by the Institutional Animal Care and Use Institutional Ethics Committee.
DNA damage assay: Sample sections (5μ) from ovaries removed 12h after Cy treatment were stained for DNA damage evaluation with γH2AX antibody, and all the PMF oocytes were classified as positive/negative for DNA damage. Oocytes were counted from 6-8 ovaries and the ratio of stained oocytes to total oocytes was calculated.

[6] = tested on: PMF oocytes; assay: Apoptosis assay, cPARP staining; assay type: in vivo, mouse; details: ovaries removed 24 h after Cy, alone or co-treated; FIG. 7B
Experimental: Apoptosis assay: Sample sections (5μ) from ovaries removed 24h after Cy treatment were stained for apoptotic marker cPARP antibody, and all the PMF oocytes were classified as positive/negative for apoptosis. Oocytes were counted from 6-8 ovaries and the ratio of stained oocytes to total oocytes was calculated.

[7] = 3 cycles of mating after Cy, alone or co-treated
[8] = tested on: primordial follicles (PMF); assay: Ex vivo culture of neonatal mouse ovaries with PM, PMF counting (H&E); assay type: cell-based; details: ex vivo ovaries of 12 days mice, PM 4 hours, with or without 400 nM Tem; FIG. 2A
[9] = Cy 150 mg/kg, with or without Tem, FIG. 3B

## O=P1(N(CCCl)CCCl)NCCCO1 (stereo not shown) [Cy, cyclophosphamide]
[1]; mouse, in vivo
  PMF loss: 77%
  PMFs 3 days after Cy treatment: 59.5±2.7
  number of PMFs three weeks after treatment: 32±2.12
  ratio between growing and dormant follicles: 1.31
  total number of growing follicles 3 days after Cy treatment: 78.5±6.1
[2]; mouse, in vivo
  Granulosa cells in primary follicles, Extensive proliferation: 21%
  Granulosa cells in primary follicles, Mild proliferation: 63%
  Granulosa cells in primary follicles, No proliferation: 16%
  primary follicles classified as proliferating (either mild or extensive proliferation): 84%
[3]
  relative band intensity of phosphorylated rpS6 (prpS6/rpS6 ratio): 1.88
[4]
  relative band intensity of phosphorylated mTOR (pmTOR/mTOR ratio): 1.44
[5]
  PMF oocytes stained positive for γH2AX (DNA damage): more than 90%
[6]
  PMF oocytes stained positive for cPARP (apoptosis): 22%
[7]
  mean litter size: 4.62

## CO[C@H]1C[C@@H]2CC[C@@H](C)[C@@](O)(O2)C(=O)C(=O)N2CCCC[C@H]2C(=O)O[C@H]([C@H](C)C[C@@H]2CC[C@@H](OC(=O)C(C)(CO)CO)[C@H](OC)C2)CC(=O)[C@H](C)/C=C(\C)[C@@H](O)[C@@H](OC)C(=O)[C@H](C)C[C@H](C)/C=C/C=C/C=C/1C [Tem, Temsirolimus]
[8]
  PMFs on day 7 of culture: 124±5.9
[1]; 8-week-old mice, single dose Cy 150 mg/kg, with or without Tem 5 mg/kg 5 doses, FIG. 3A
  PMF count 21 days after Cy treatment: 122.5±1.7
[1]; 3 days after Cy 150 mg/kg, with or without Tem, FIG. 3C
  ratio between growing and dormant follicles: 0.66
[1]; Cy 150 mg/kg, with or without Tem and/or rAMH (5 μg/mouse, 5 doses), FIG. 4
  number of PMFs three weeks after treatment: 68.5±2.69
[1]; [9]
  PMFs 3 days after Cy treatment: 101.6±8.9
  total number of growing follicles 3 days after Cy treatment: 65.6±5.2
[1]; three weeks after Cy 150 mg/kg, with or without co-treatment, FIG. 4
  PMF loss: 52%
[2]; Ki-67, 1-2 granulosa cells stained, ovaries removed 24 hours after Cy 150 mg/kg or PBS
  Granulosa cells in primary follicles, Mild proliferation: 22%
[2]; Ki-67, 3 or more granulosa cells stained, ovaries removed 24 hours after Cy 150 mg/kg or PBS
  Granulosa cells in primary follicles, Extensive proliferation: 5%
[2]; Ki-67, 24 hours after Cy, alone or co-treated
  primary follicles classified as proliferating (either mild or extensive proliferation): 32%
[2]; Ki-67, ovaries removed 24 hours after Cy 150 mg/kg or PBS
  Granulosa cells in primary follicles, No proliferation: 73%
[3]
  relative band intensity of phosphorylated rpS6 (prpS6/rpS6 ratio): 0.3
[4]
  relative band intensity of phosphorylated mTOR (pmTOR/mTOR ratio): 0.57
[6]
  PMF oocytes stained positive for cPARP (apoptosis): 14%
